Measured values: PMC8869358, “High-Throughput Chemical Screening and Structure-Based Models to Predict hERG Inhibition” (Biology, 2022)
Structures can show the parent of a compound that is named as a salt.

Each compound was assayed against hERG (Homo sapiens, UniProt Q12809) (assay: cell-based). Details: (-LOG10(IC50), µM).
hERG, sequence (Q12809 whole entry): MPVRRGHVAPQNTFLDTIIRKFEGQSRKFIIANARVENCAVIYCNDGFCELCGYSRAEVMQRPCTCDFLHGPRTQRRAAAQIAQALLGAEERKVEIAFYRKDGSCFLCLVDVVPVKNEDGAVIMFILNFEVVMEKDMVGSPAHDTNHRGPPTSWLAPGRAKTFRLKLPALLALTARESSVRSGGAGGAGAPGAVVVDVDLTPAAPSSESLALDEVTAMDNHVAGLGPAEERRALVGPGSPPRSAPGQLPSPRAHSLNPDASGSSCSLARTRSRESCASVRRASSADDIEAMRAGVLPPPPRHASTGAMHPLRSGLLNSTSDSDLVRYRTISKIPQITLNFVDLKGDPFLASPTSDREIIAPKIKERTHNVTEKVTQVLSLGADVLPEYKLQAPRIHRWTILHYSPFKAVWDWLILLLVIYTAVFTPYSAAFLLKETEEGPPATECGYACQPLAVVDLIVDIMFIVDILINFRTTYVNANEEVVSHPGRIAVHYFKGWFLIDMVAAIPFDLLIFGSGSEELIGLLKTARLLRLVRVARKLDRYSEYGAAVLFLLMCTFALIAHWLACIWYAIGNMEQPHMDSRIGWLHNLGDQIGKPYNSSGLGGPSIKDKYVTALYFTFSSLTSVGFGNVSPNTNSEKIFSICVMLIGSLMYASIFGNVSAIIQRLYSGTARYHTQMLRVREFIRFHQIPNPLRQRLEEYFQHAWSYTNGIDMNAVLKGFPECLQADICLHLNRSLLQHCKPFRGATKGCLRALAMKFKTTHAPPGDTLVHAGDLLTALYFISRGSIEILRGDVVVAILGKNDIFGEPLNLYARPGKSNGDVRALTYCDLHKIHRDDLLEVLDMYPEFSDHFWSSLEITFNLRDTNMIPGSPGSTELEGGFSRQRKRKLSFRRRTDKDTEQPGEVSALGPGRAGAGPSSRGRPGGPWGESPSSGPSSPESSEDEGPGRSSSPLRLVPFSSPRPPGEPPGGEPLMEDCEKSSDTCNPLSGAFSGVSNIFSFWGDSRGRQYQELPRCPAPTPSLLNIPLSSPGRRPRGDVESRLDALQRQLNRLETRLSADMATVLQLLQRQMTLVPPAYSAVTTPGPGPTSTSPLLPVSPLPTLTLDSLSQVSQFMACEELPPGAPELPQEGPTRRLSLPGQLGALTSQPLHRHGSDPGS

Structure (SMILES)	IC50 [µM]
CN1Cc2c(N)cccc2C(c2ccccc2)C1 (centres unmarked) [Nomifensine]	38.9
CCC(=O)C(CCN(C)C)(c1ccccc1)c1ccccc1 [Normethadone]	15.1
CC(CCc1ccccc1)NC(C)C(O)c1ccc(O)cc1 (centres unmarked) [Nylidrin]	5.56
CCCCCCCCn1sccc1=O [Octhilinone]	27.6
CN1CCN(C2Cc3ccccc3Sc3ccc(Cl)cc32)CC1 (centres unmarked) [Octoclothepine maleate]	0.849
CC(C)(C)CC(C)(C)c1ccc(O)c(-n2nc3ccccc3n2)c1 [Octrizole]	14.5
CCCCC(CC)CN1C(=O)C2C3C=CC(C3)C2C1=O (centres unmarked) [Octylbicycloheptenedicarboximide]	49
C/C(=C(/OCCOc1ccc(Cl)cc1)c1ccc(Cl)cc1Cl)n1ccnc1 [Omoconazole]	8.17
CC(C)Oc1cc(-n2nc(C(C)(C)C)oc2=O)c(Cl)cc1Cl [Oxadiazon]	44.7
C[N+]1(CC2COC(c3ccccc3)(C3CCCCC3)O2)CCCCC1 (centres unmarked) [Oxapium iodide]	14
O=c1[nH]c2ccccc2n1CCCN1CCN(C(c2ccccc2)c2ccccc2)CC1 [Oxatomide]	0.442
CCOc1cc(Oc2ccc(C(F)(F)F)cc2Cl)ccc1[N+](=O)[O-] [Oxyfluorfen]	21.9
CN1CCCN=C1COC(=O)C(O)(c1ccccc1)C1CCCCC1 (centres unmarked) [Oxyphencyclimine hydrochloride]	5.15
Cc1cc(CCN2CCN(c3nsc4ccccc34)CC2)cc2c1NC(=O)CC2(C)C [PD 0343701]	16.1
COc1ccnc(C[S+]([O-])c2nc3ccc(OC(F)F)cc3[nH]2)c1OC (centres unmarked) [Pantoprazole sodium]	49.3
OC(c1ccc(Cl)cc1)(c1ccc(Cl)cc1)c1cccnc1 [Parinol]	20.3
O=C(Nc1ccccc1)N(Cc1ccc(Cl)cc1)C1CCCC1 [Pencycuron]	33.4
OC1(c2ccc(Cl)c(C(F)(F)F)c2)CCN(CCCC(c2ccc(F)cc2)c2ccc(F)cc2)CC1 [Penfluridol]	0.239
CCCCCC1Nc2cc(C(F)(F)F)c(S(N)(=O)=O)cc2S(=O)(=O)N1 (centres unmarked) [Penflutizide]	23
BrC(Br)C(Br)(Br)Br [Pentabromoethane]	49.3
CCCN1C[C@H](CSC)C[C@@H]2c3cccc4[nH]cc(c34)C[C@H]21 [Pergolide methanesulfonate]	7.56

Structure (SMILES)	IC50 [µM]
O=C1[C@H]2CCCC[C@H]2C(=O)N1CCCCN1CCN(c2nsc3ccccc23)CC1 [Perospirone hydrochloride]	8.49
CCc1cc(SCc2sc(-c3ccc(C(F)(F)F)cc3)nc2CN2CCN(c3ccc(OC)cc3)CC2)ccc1OCC(=O)O [PharmaGSID_47315]	3.34
O=C1c2ccccc2C(=O)N1CCc1noc(-c2ccc(CN3CCCCCC3)s2)n1 [PharmaGSID_48172]	23.4
Cc1[nH]nc2c1N=C(c1ccccc1Cl)c1cc([N+](=O)[O-])ccc1N2 [PharmaGSID_48505]	11.4
CN1C(=O)N(c2ccccc2Br)Cc2cnc(Nc3ccc4c(c3)OCC(CO)O4)nc21 (centres unmarked) [PharmaGSID_48519]	43.6
CCCC[C@H]1CN(CC2CCOCC2)C(=O)OC12CCN(C1(C)CCN(C(=O)c3c(C)ncnc3C)CC1)CC2 [PharmaGSID_48521]	13.6
O=C(C=Cc1ccccc1)OCCc1ccccc1 [Phenethyl cinnamate]	36
S=C=NCCc1ccccc1 [Phenethyl isothiocyanate]	16.8
c1ccc2c(c1)Oc1ccccc1S2 [Phenoxathiin]	24.5
O=C(Oc1ccccc1)c1ccc2ccccc2c1O [Phenyl 1-hydroxy-2-naphthoate]	49
CN(C)CCOc1ccccc1Cc1ccccc1 [Phenyltoloxamine citrate]	8.49
CCOP(=S)(OCC)SCn1c(=O)oc2cc(Cl)ccc21 [Phosalone]	23.5
CN1CCC(=C2c3ccccc3Sc3ccccc32)CC1 [Pimethixene maleate]	9.89
COc1cc2c(cc1OC)C(C(C(=O)N(CCc1ccc(OC)c(OC)c1OC)CCc1ccc(OC)c(OC)c1OC)c1ccccc1)=NCC2 (centres unmarked) [Pinokalant hydrochloride]	20.1
NC(=O)C1(N2CCCCC2)CCN(CCCC(=O)c2ccc(F)cc2)CC1 [Pipamperone dihydrochloride]	20.1
CC(=O)c1ccc2c(c1)N(CCCN1CCC(CCO)CC1)c1ccccc1S2 [Piperacetazine]	2.39
CCCCCCCC[S+]([O-])C(C)Cc1ccc2c(c1)OCO2 (centres unmarked) [Piperonyl sulfoxide]	38.2
O=C1OC(CCN2CCCCC2)OC1(c1ccccc1)c1ccccc1 (centres unmarked) [Pipoxolan hydrochloride]	1.25
Cc1nc2ccccn2c(=O)c1CCN1CCC(C(=O)c2ccc(F)cc2)CC1 [Pirenperone]	6.74
CCN(CC)c1nc(C)cc(OP(=S)(OC)OC)n1 [Pirimiphos-methyl]	50.9
CN1CCC(=C2c3ccccc3CCc3sccc32)CC1 [Pizotyline]	10.3

Structure (SMILES)	IC50 [µM]
CCCCCCCCCCCCOCCOCCOCCOCCOCCOCCOCCOCCOCCO [Polyoxyethylene (9) lauryl ether]	21.3
CN1C(CSCC(F)(F)F)Nc2cc(Cl)c(S(N)(=O)=O)cc2S1(=O)=O (centres unmarked) [Polythiazide]	19.7
CC[C@@H]([C@H](C)O)n1ncn(-c2ccc(N3CCN(c4ccc(OC[C@@H]5CO[C@@](Cn6cncn6)(c6ccc(F)cc6F)C5)cc4)CC3)cc2)c1=O [Posaconazole]	12.9
NC(=O)c1nc(-c2cccc(-c3cc(F)ccc3OCC(F)(F)C(F)(F)F)c2)n[nH]1 [Potassium 5-carbamoyl-3-[5'-fluoro-2'-(2,2,3,3,3-pentafluoropropoxy)-3-biphenylyl]-1,2,4-triazol-1-ide hydrate (1:1:1)]	47.1
O=C(N[C@H]1N=C(c2ccccc2F)c2cccc3c2N(CC3)C1=O)c1cc2ccccc2[nH]1 [Pranazepide]	7.86
O=C1CN=C(c2ccccc2)c2cc(Cl)ccc2N1CC1CC1 [Prazepam]	23
CC[N+]1(CC)CCC(=C(c2ccccc2)c2ccccc2)C1C (centres unmarked) [Prifinium bromide]	20.5
CCCC(C(=O)OCCN(CC)CC)(c1ccccc1)c1ccccc1 [Proadifen hydrochloride]	7.28
CCCN(CCOc1c(Cl)cc(Cl)cc1Cl)C(=O)n1ccnc1 [Prochloraz]	20.3
CCCN(CCC)c1c([N+](=O)[O-])cc(C(F)(F)F)c(N)c1[N+](=O)[O-] [Prodiamine]	37.3
CCCN(CCC)C(=O)C(CCC(=O)OCCCN1CCN(CCOC(=O)Cc2c(C)n(C(=O)c3ccc(Cl)cc3)c3ccc(OC)cc23)CC1)NC(=O)c1ccccc1 (centres unmarked) [Proglumetacin]	0.365
[H]/N=C(\N/C(=N/[H])Nc1ccc(Cl)cc1)NC(C)C [Proguanil hydrochloride]	20.1
CN(C)CCCN1c2ccccc2Sc2ccccc21 [Promazine hydrochloride]	9.52
CC(CN1c2ccccc2Sc2ccccc21)N(C)C (centres unmarked) [Promethazine hydrochloride]	23
CC(CN1c2ccccc2Sc2ccccc21)N(C)C (centres unmarked) [Promethazine]	19.7
C#CCOS(=O)OC1CCCCC1Oc1ccc(C(C)(C)C)cc1 (centres unmarked) [Propargite]	20.7
CCC(=O)c1ccc2c(c1)N(CCCN(C)C)c1ccccc1S2 [Propionylpromazine hydrochloride]	9.16
CCCOC(C(=O)OC1CCN(C)CC1)(c1ccccc1)c1ccccc1 [Propiverine hydrochloride]	14.2
O=C(CCN1CCC(c2ccccc2)C1)c1ccc2c(c1)OCCO2 (centres unmarked) [Proroxan]	17.6
CCCSSC(CCO)=C(C)N(C=O)Cc1cnc(C)nc1N [Prosultiamine]	10.7
CNCCCC1c2ccccc2C=Cc2ccccc21 [Protriptyline hydrochloride]	23.9

Structure (SMILES)	IC50 [µM]
CCOC(=O)COc1cc(-c2nn(C)c(OC(F)F)c2Cl)c(F)cc1Cl [Pyraflufen-ethyl]	33.4
CCOC(=O)c1cn2nc(OP(=S)(OCC)OCC)cc2nc1C [Pyrazophos]	51.9
COc1ccc(CN(CCN(C)C)c2ccccn2)cc1 [Pyrilamine maleate]	20.9
COc1ccc(CN(CCN(C)C)c2ccccn2)cc1 [Pyrilamine]	27.4
CC(COc1ccc(Oc2ccccc2)cc1)Oc1ccccn1 (centres unmarked) [Pyriproxyfen]	21
Fc1ccc(Oc2ccnc3cc(Cl)cc(Cl)c23)cc1 [Quinoxyfen]	22.7
CCOC(=O)C(C)Oc1ccc(Oc2cnc3cc(Cl)ccc3n2)cc1 (centres unmarked) [Quizalofop-ethyl]	17.1
Cn1cc(C(=O)[C@@H]2CCc3nc[nH]c3C2)c2ccccc21 [Ramosetron hydrochloride]	20.5
COC(=O)[C@H]1[C@H]2C[C@@H]3c4[nH]c5cc(OC)ccc5c4CCN3C[C@H]2C[C@@H](OC(=O)/C=C/c2ccc(O)c(OC)c2)[C@@H]1OC [Rescimetol]	1.57
COC(=O)[C@H]1[C@H]2C[C@@H]3c4[nH]c5cc(OC)ccc5c4CCN3C[C@H]2C[C@@H](OC(=O)c2cc(OC)c(OC)c(OC)c2)[C@@H]1OC [Reserpine]	9.16
C[C@@H]1CN(CCCn2c3ccccc3c3ccccc32)C[C@H](C)N1 [Rimcazole dihydrochloride]	7.86
Cc1c(C(=O)NN2CCCCC2)nn(-c2ccc(Cl)cc2Cl)c1-c1ccc(Cl)cc1 [Rimonabant]	3.25
O=C(CCCCCCCCc1cccnc1)N1CCC(C=C(c2ccccc2)c2ccccc2)CC1 [Ro 23-7637]	11
N=C(N/N=C/c1ccc(Cl)cc1)N/N=C/c1ccc(Cl)cc1 [Robenidine]	1.69
CCCN(CCc1cccs1)[C@H]1CCc2c(O)cccc2C1 [Rotigotine]	3.01
Oc1ccc2[nH]cc(CCCCN3CC=C(c4ccccc4)CC3)c2c1 [Roxindole]	3.38
C=CCC1=C(C)[C@@H](OC(=O)[C@@H]2[C@@H](C=C(C)C)C2(C)C)CC1=O [S-Bioallethrin]	23.6
CC(=O)NC1(c2cccc(F)c2)CCN(CC[C@@]2(c3ccc(Cl)c(Cl)c3)CN(c3ccccc3)C(=O)CO2)CC1 [SAR102779]	9.08
CCOC(=O)c1ccc([C@H]2CC[C@H](NC[C@H](O)COc3ccc(O)c(NS(C)(=O)=O)c3)CC2)cc1 [SAR 150640]	28.5
Cc1nc(-c2ccc3c(c2)CCN(CCC2CCC(NC(=O)/C=C/c4ccc(F)cc4)CC2)CC3)no1 (centres unmarked) [SB413217A]	1.02
